Laboratory results: publication PMC7841342, “Elevated ABCB1 Expression Confers Acquired Resistance to Aurora Kinase Inhibitor GSK-1070916 in Cancer Cells” (Frontiers in Pharmacology, 2021)

Molecular target: ABCB1 (Homo sapiens, UniProt P08183)
Test: biochemical

Sequence of ABCB1 (P08183 whole entry): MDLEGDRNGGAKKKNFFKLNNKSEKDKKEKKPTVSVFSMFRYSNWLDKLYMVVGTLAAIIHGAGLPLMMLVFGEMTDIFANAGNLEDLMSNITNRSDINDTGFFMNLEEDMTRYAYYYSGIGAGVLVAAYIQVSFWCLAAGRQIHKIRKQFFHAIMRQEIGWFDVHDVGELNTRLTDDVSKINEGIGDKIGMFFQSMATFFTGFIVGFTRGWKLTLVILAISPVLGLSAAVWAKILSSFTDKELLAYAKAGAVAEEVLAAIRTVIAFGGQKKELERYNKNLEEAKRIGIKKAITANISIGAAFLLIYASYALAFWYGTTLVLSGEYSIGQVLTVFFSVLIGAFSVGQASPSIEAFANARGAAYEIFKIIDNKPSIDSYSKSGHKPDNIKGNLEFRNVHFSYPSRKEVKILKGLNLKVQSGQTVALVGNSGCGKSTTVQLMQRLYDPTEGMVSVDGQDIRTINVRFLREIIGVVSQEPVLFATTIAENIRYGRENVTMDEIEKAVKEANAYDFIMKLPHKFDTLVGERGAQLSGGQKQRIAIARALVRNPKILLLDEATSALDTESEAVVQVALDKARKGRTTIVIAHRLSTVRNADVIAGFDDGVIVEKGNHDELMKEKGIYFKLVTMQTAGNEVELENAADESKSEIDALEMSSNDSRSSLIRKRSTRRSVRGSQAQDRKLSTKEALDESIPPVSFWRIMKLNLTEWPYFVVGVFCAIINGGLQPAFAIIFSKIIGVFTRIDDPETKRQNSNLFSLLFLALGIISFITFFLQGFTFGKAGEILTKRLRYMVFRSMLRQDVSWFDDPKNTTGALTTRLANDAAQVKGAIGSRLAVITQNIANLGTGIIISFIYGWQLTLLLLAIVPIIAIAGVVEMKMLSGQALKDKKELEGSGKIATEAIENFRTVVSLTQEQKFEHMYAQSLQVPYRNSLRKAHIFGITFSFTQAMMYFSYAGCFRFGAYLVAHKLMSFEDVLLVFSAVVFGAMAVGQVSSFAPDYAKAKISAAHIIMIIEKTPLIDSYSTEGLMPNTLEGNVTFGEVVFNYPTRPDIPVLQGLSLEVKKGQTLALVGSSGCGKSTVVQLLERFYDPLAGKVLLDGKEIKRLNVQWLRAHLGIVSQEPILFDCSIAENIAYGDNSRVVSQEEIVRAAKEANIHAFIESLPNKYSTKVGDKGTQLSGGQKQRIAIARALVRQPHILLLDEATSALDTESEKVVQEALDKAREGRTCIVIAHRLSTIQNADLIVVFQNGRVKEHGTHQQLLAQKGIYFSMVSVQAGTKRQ

In the case of `CCn1cc(-c2ccnc3[nH]c(-c4cccc(CN(C)C)c4)cc23)c(-c2ccc(NC(=O)N(C)C)cc2)n1` [GSK-1070916], the EC50 is reported as 830 nM.
